Laboratory results published in US20050019314A1, “Method and compositions for treating respiratory pathologies” (priority 2001, published 2005).
Marks after values point to notes of the source that are not given here.

Key:
Format in all cases: in vivo, rat
[1] = test system: male Wistar rats; assay: Immune cell accumulation in bronchoalveolar lavage fluid induced by intranasal instillation of SLIGRL in rats
Method: At time t=10 days, the four groups of animals were given a slow intranasal instillation of 200 μl of physiologic serum containing (groups 2 and 4) or not containing (groups 1 and 3) 0.2 mg of SLIGRL.
At time t=3 h after intranasal instillation, animals were anesthetized for bronchoalveolar lavage, then sacrificed.

[2] = test system: male Wistar rats; assay: Immune cell accumulation in bronchoalveolar lavage fluid induced by intratracheal instillation of taurocholate (ML-7)
Method: For this experiment, three groups of 8 male Wistar rats (250-300 g) were given either ML-7 by the IP route at a dose of 1 mg/kg/12 h for 36 hours, or the vehicle alone. […] At time t=2 h after the intratracheal instillation, animals were anesthetized for bronchoalveolar lavage, then sacrificed.

[3] = test system: male Wistar rats; assay: Pulmonary paracellular permeability to 125I-labelled human serum albumin after intratracheal Pseudomonas aeruginosa LPS
Method: For this experiment, three groups of 6 male Wistar rats (200-225 g) were pretreated either with ML-7 by the IP route (3 mg/kg then 1 mg/kg 3 times a day for 48 h) or the vehicle (ethanol 10%). One hour after the next-to-last administration of ML-7, under urethane anesthesia ([…] IP), a slow intratracheal infusion of 150 μl of an iso-osmolar solution (5% bovine albumin+PBS) containing the tracer and containing (2 groups) or not containing (control group) LPS (1 μg/rat) was given.

[4] = test system: male Wistar rats; assay: Immune cell accumulation in bronchoalveolar lavage fluid induced by intratracheal infusion of Pseudomonas aeruginosa LPS
Method: For this experiment, three groups of 7 male Wistar rats (200-225 g) were used. Animals were pretreated with either ML-7 by the IP route (3 mg/kg then 1 mg/kg, 3 times a day for 48 h) or with the vehicle (ethanol 10%). One hour after the next-to-last ML-7 administration, under urethane anesthesia ([…]), a slow intratracheal infusion of 150 μl of an iso-osmolar solution (5% bovine albumin+PBS) containing (2 groups) or not containing (control group) LPS (1 μg/rat) was given. Four hours after the intratracheal infusion, bronchoalveolar lavage was performed.

[5] = test system: male Wistar rats; assay: Immune cell accumulation in bronchoalveolar lavage fluid induced by intratracheal infusion of taurocholate (PD-98059)
Method: For this experiment, three groups of 8 male Wistar rats (250-300 g) were given either PD-98059 by the IP route (1 mg/kg/12 h, 36 h) or the vehicle alone (DMSO).

[6] = PAR 2 (SLIGRL) 0.2 mg/kg IN alone, no taurine, BAL 3 h after instillation
[7] = Taurine 10% in drinking water 10 days + 0.9% NaCl IN, BAL 3 h
[8] = Taurine 10% in drinking water 10 days + PAR 2 (SLIGRL) IN, BAL 3 h
[9] = ML-7 1 mg/kg/12 h, 36 h IP + taurocholate intratracheal, BAL 2 h, mean ± SD
[10] = ML-7 (3 mg/kg then 1 mg/kg 3 times a day for 48 h IP) + LPS, BAL 4 h, mean ± SEM
[11] = PD-98059 1 mg/kg/12 h, 36 h IP + taurocholate, BAL 2 h, mean ± SEM

SLIGRL [PAR 2]
Eosinophils in BAL [1, 6]: 32 ± 2^+ mm^3 | Lymphocytes in BAL [1, 6]: 297 ± 28 mm^3 | Macrophages in BAL [1, 6]: 5559 ± 63^+ mm^3 | Neutrophils in BAL [1, 6]: 656 ± 41^+ mm^3 | Tot. Leucocytes in BAL [1, 6]: 6464 ± 99^+ mm^3 | eosinophils and neutrophils in bronchoalveolar lavage fluid (in words) ([1]; intranasal SLIGRL, control animals (no taurine), t = 3 h): results in accumulation

NCCS(=O)(=O)O [Taurine, taurine]
Eosinophils in BAL [1, 7]: 17 ± 1 mm^3 | Lymphocytes in BAL [1, 7]: 22 ± 8 mm^3 | Macrophages in BAL [1, 7]: 1651 ± 72 mm^3 | Neutrophils in BAL [1, 7]: 34 ± 3 mm^3 | Tot. Leucocytes in BAL [1, 7]: 1728 ± 111 mm^3 | Eosinophils in BAL [1, 8]: 17 ± 1* mm^3 | Lymphocytes in BAL [1, 8]: 22 ± 8* mm^3 | Macrophages in BAL [1, 8]: 1967 ± 103* mm^3 | Neutrophils in BAL [1, 8]: 34 ± 3* mm^3 | Tot. Leucocytes in BAL [1, 8]: 2086 ± 134* mm^3 | SLIGRL-induced accumulation of eosinophils and neutrophils in BAL (in words) ([1]; animals treated with taurine, t = 3 h): not in animals treated with taurine

O=S(=O)(c1cccc2c(I)cccc12)N1CCCNCC1 [ML-7, 1-(5-iodonaphtalène-1-sulfonyl)-1H-hexahydro-1,4-diazepine]
Leucocytes in BAL [2, 9]: 4160 ± 573 | Lymphocytes in BAL [2, 9]: 101 ± 44 | Macrophages in BAL [2, 9]: 3585 ± 398 | Neutrophils in BAL [2, 9]: 473 ± 216 | intra-alveolar accumulation of immune cells (in words) ([2]; ML-7 IP + intratracheal taurocholate): significantly reduces | effect on vascular endothelial cells (endothelium permeability, tone, pulmonary circulating hemodynamics) ([3]; ML-7 IP + LPS, concluded from unchanged plasma radioactivity): does not present effect | LPS-induced increase in pulmonary permeability ([3]; ML-7 pretreatment IP (3 mg/kg then 1 mg/kg 3 times a day for 48 h) + LPS): inhibited | Leucocytes in BAL [4, 10]: 17243 ± 2956 cells/mm^3 BAL | Lymphocytes in BAL [4, 10]: 902 ± 375 cells/mm^3 BAL | Macrophages in BAL [4, 10]: 10708 ± 1713 cells/mm^3 BAL | Neutrophils in BAL [4, 10]: 6587 ± 1749 cells/mm^3 BAL | LPS-induced increase in the number of neutrophils in BAL (in words) ([4]; ML-7 pretreatment IP + LPS): reduced

COc1cccc(-c2cc(=O)c3ccccc3o2)c1N [PD-98059, 2-(amino-3-methoxyphenyl)-4H-1-benzopyran-4-one]
Eosinophils in BAL [5, 11]: 27 ± 27 cells/mm^3 BAL | Leucocytes in BAL [5, 11]: 21424 ± 3164 cells/mm^3 BAL | Lymphocytes in BAL [5, 11]: 774 ± 183 cells/mm^3 BAL | Macrophages in BAL [5, 11]: 17956 ± 2465 cells/mm^3 BAL | Neutrophils in BAL [5, 11]: 2652 ± 600 cells/mm^3 BAL | intra-alveolar accumulation of immune cells (in words) ([5]; PD-98059 IP + intratracheal taurocholate): reduces
